{"source": "patent US20250034084A1", "about": "“COMPOSITIONS AND METHODS FOR PREVENTING OR TREATING MYCOSIS” (AMTIXBIO CO., LTD., priority 2016, published 2025)", "key": {"[1]": {"test_system": "Candida albicans SC5314 (ATCC)", "assay": "Antifungal activity assay (MIC), NCCLS method", "type": "cell-based", "conditions": "RPMI 1640 medium", "excerpt": "(§1) In order to measure the minimum inhibitory concentration (MIC), strains Candida albicans SC5314 (ATCC), Candida glabrata BG2 (ATCC), and Cryptococcus neoformans var. grubii […] were used. All the strains used in the test examples of the present invention were purchased from Korean Culture Center of Microorganisms (KCCM) and ATCC, and used. […] As a control group, amphotericin B and fluconazole, which are known to have excellent antifungal inhibitory activity with a problem of human toxicity, were used. Specifically, in order to prepare a medium first, 8.4 g of RPMI-1640 powder (Sigma; […]-1L) was added to 900 ml of distilled water. Next, 34.5 g of MOPS was added thereto, to bring the final concentration to 0.165 M. Then, 100 ml of 20% glucose was added thereto, and then the pH of the resultant was adjusted to 7 using NaOH. Next, after performing filtration with a filter, the filtrate was stored in a refrigeration condition at 4° C. for use in the next experiment. The experimental method and procedure for the MIC assay were as follows: […] (c) in a case of Aspergillus fumigatus, a diluent was prepared at a concentration of 1×10^5 conidia/ml; (d) a 96-well plate was used and 100 μl of the solution was added to each well, so that 2 μl of diluted drug was prepared; (e) 200 μl of the solution was added to a well into which the highest concentration of drug was to be added, and dilution was performed by serial dilution; (f) after performing static culture for 48 hours at 37° C., a degree of growth was measured at OD600 and a comparison was made."}, "[2]": {"test_system": "Candida glabrata BG2 (ATCC)", "assay": "Antifungal activity assay (MIC), NCCLS method", "type": "cell-based", "conditions": "RPMI 1640 medium", "excerpt": "as §1"}, "[3]": {"test_system": "Cryptococcus neoformans var. grubii H99 (ATCC)", "assay": "Antifungal activity assay (MIC), NCCLS method", "type": "cell-based", "conditions": "RPMI 1640 medium", "excerpt": "as §1"}, "[4]": {"test_system": "Aspergillus fumigatus strains (KCCM32791, KCCM60031, KCCM60293, KCCM60036, KCCM60031, and KCCM60027)", "assay": "MIC test against several Aspergillus fumigatus strains (FIG. 2)", "type": "cell-based"}, "[5]": {"test_system": "Fusarium graminearum (KCTC16656) and Fusarium (KSU11480)", "type": "cell-based", "conditions": "YPD solid medium, FIG. 4"}, "[6]": {"test_system": "Trichophyton tonsurans, Trichophyton rubrum, Trichophyton mentagrophytes", "assay": "Suppressive activity against Trichophytons on YPD solid medium", "type": "cell-based", "conditions": "six Trichophyton strains"}, "[7]": {"test_system": "Cryptococcus neoformans wild-type (H99S)", "assay": "Drug efficacy in Galleria mellonella insect model infected with C. neoformans", "description": "The wild-type (H99S) strain of Cryptococcus neoformans, which is pathogenic fungi, was inoculated into a yeast extract, peptone, and dextrose (YPD) liquid medium, cultured for 16 hours, and then washed twice with phosphate buffered saline (PBS), to prepare a final sample of 10^6 cells/ml. […] A 4 p1 suspension of C. neoformans prepared was injected into a proleg of larvae, so that 4,000 pathogen cells were infected per larva, in which an automatic injector (PB600-1) manufactured by Hamilton Company, and 100 pl syringes and needles were used. […] A group into which PBS alone was injected each time after the infection with C. neoformans was tested as a positive control, and a group in which both infection and drug injection were replaced with PBS was tested as a negative control. […] The larvae were determined as dead in a case where the larvae became dark-colored and made no movement. […] For significance with the controls, a significance level was determined using the Long-rank (Mantel-Cox) method."}}, "data": [{"compound": "CCC(N)C(=O)NCc1ccc(OCc2ccc(C(F)(F)F)cc2)cc1.Cl", "note": "(racemic) [Compound 22, (R)/(S)-1-oxo-1-((4-((4-(trifluoromethyl)benzyl)oxy)benzyl)amino)butane-2-aminium chloride]", "values": [{"measurement": "MIC C. albicans", "setting": "[1]", "value": 64, "unit": "µg/mL"}, {"measurement": "MIC C. glabrata", "setting": "[2]", "value": 32, "unit": "µg/mL"}, {"measurement": "MIC C. neoformans", "setting": "[3]", "value": 16, "unit": "µg/mL"}, {"measurement": "inhibitory activity (MIC, average values) compared with amphotericin B", "setting": "[4]", "value": "higher inhibitory activity than amphotericin B"}]}, {"compound": "(R)/(S)-1-((4-((4-(trifluorobenzyl)oxy)benzyl)amino)-1-oxopentane-2-aminium chloride [Compound 26]", "values": [{"measurement": "MIC C. albicans", "setting": "[1]", "value": 16, "unit": "µg/mL"}, {"measurement": "MIC C. glabrata", "setting": "[2]", "value": 8, "unit": "µg/mL"}, {"measurement": "MIC C. neoformans", "setting": "[3]", "value": 4, "unit": "µg/mL"}, {"measurement": "inhibitory activity (MIC, average values) compared with amphotericin B", "setting": "[4]", "value": "higher inhibitory activity than amphotericin B"}, {"measurement": "suppressive activity against phytopathogenic fungi", "setting": "[5]", "value": "very excellent suppressive activity"}, {"measurement": "suppressive activity against Trichophytons", "setting": "[6]", "value": "excellent suppressive activity"}]}, {"compound": "CN1CCCC1C(=O)NCc1ccc(OCc2ccc(Cl)cc2)cc1", "note": "(racemic) [Compound 44, (R)/(s)-1-methyl-N-(4-((4-chlorobenzyl)oxy)benzyl)pyrrolidine-2-carboxamide]", "values": [{"measurement": "MIC C. albicans", "setting": "[1]", "value": 32, "unit": "µg/mL"}, {"measurement": "MIC C. glabrata", "setting": "[2]", "value": 64, "unit": "µg/mL"}, {"measurement": "MIC C. neoformans", "setting": "[3]", "value": 8, "unit": "µg/mL"}]}, {"compound": "CCC(N)C(=O)NCc1ccc(OCc2ccccc2C(F)(F)F)cc1.Cl", "note": "(racemic) [Compound 20, (R)/(S)-1-oxo-1-((4-((2-(trifluoromethyl)benzyl)oxy)benzyl)amino)butane-2-aminium chloride]", "values": [{"measurement": "MIC C. albicans", "setting": "[1]", "value": 64, "unit": "µg/mL"}, {"measurement": "MIC C. glabrata", "setting": "[2]", "value": 64, "unit": "µg/mL"}, {"measurement": "MIC C. neoformans", "setting": "[3]", "value": 16, "unit": "µg/mL"}]}, {"compound": "C[C@@H]1[C@H](O)[C@@H](C)/C=C/C=C/C=C/C=C/C=C/C=C/C=C/[C@H](O[C@@H]2O[C@H](C)[C@@H](O)[C@H](N)[C@@H]2O)C[C@@H]2O[C@](O)(C[C@@H](O)C[C@@H](O)[C@H](O)CC[C@@H](O)C[C@@H](O)CC(=O)O[C@H]1C)C[C@H](O)[C@H]2C(=O)O", "note": "[AmpB, amphotericin B, reference compound]", "values": [{"measurement": "MIC C. albicans", "setting": "[1]", "value": 0.25, "unit": "µg/mL"}, {"measurement": "MIC C. glabrata", "setting": "[2]", "value": 0.5, "unit": "µg/mL"}, {"measurement": "MIC C. neoformans", "setting": "[3]", "value": 0.125, "unit": "µg/mL"}]}, {"compound": "CCCC(N)C(=O)NCc1ccc(OCc2cccc(F)c2)cc1.Cl", "note": "(racemic) [Compound 25, (R)/(S)-1-((4-((3-fluorobenzyl)oxy)benzyl)amino)-1-oxopentane-2-aminium chloride]", "values": [{"measurement": "MIC C. albicans", "setting": "[1]", "value": 128, "unit": "µg/mL"}, {"measurement": "MIC C. glabrata", "setting": "[2]", "value": 64, "unit": "µg/mL"}, {"measurement": "MIC C. neoformans", "setting": "[3]", "value": 32, "unit": "µg/mL"}]}, {"compound": "CCC(N)C(=O)NCc1ccc(OCc2cccc(F)c2)cc1.Cl", "note": "(racemic) [Compound 18, (R)/(S)-1-((4-((3-(fluorobenzyl)oxy)benzyl)amino)-1-oxobutane-2-aminium chloride]", "values": [{"measurement": "MIC C. albicans", "setting": "[1]", "value": ">128", "unit": "µg/mL"}, {"measurement": "MIC C. glabrata", "setting": "[2]", "value": ">128", "unit": "µg/mL"}, {"measurement": "MIC C. neoformans", "setting": "[3]", "value": 128, "unit": "µg/mL"}, {"measurement": "survival rate on day 7 of the infection", "setting": "[7]; PBS group all died", "value": 50, "unit": "%"}, {"measurement": "survival of larvae on day 3 of the infection", "setting": "[7]; drug injected 3 h after infection and once every 24 h for two more days, PBS group 60%", "value": "all survived"}]}, {"compound": "CCC(N)C(=O)NCc1ccc(OCc2ccc(F)cc2)cc1.Cl", "note": "(racemic) [Compound 19, (R)/(S)-1-((4-((4-(fluorobenzyl)oxy)benzyl)amino)-1-oxobutane-2-aminium chloride]", "values": [{"measurement": "MIC C. albicans", "setting": "[1]", "value": ">128", "unit": "µg/mL"}, {"measurement": "MIC C. glabrata", "setting": "[2]", "value": ">128", "unit": "µg/mL"}, {"measurement": "MIC C. neoformans", "setting": "[3]", "value": 64, "unit": "µg/mL"}]}, {"compound": "CCC(NC)C(=O)NCc1ccc(OCc2cccc(Cl)c2)cc1", "note": "(racemic) [Compound 28, (R)/(S)-N-(4-((3-chlorobenzyl)oxy)benzyl)-2-(methylamino)butanamide]", "values": [{"measurement": "MIC C. albicans", "setting": "[1]", "value": 64, "unit": "µg/mL"}, {"measurement": "MIC C. glabrata", "setting": "[2]", "value": 64, "unit": "µg/mL"}, {"measurement": "MIC C. neoformans", "setting": "[3]", "value": 16, "unit": "µg/mL"}, {"measurement": "inhibitory activity (MIC, average values) compared with amphotericin B", "setting": "[4]", "value": "higher inhibitory activity than amphotericin B"}]}, {"compound": "CN1CCCC1C(=O)NCc1ccc(OCc2ccc(C(F)(F)F)cc2)cc1", "note": "(racemic) [Compound 43, (R)/(S)-1-methyl-N-(4-((4-(trifluoromethyl)benzyl)oxy)benzyl)pyrrolidine-2-carboxamide]", "values": [{"measurement": "MIC C. albicans", "setting": "[1]", "value": 32, "unit": "µg/mL"}, {"measurement": "MIC C. glabrata", "setting": "[2]", "value": 64, "unit": "µg/mL"}, {"measurement": "MIC C. neoformans", "setting": "[3]", "value": 8, "unit": "µg/mL"}]}, {"compound": "Cl.O=C(NCc1ccc(OCc2ccc(Cl)cc2)cc1)C1CCCN1", "note": "(racemic) [Compound 41, (R)/(S)-N-(4-((4-chlorobenzyl)oxy)benzyl)pyrrolidine-2-carboxamide hydrochloride]", "values": [{"measurement": "MIC C. albicans", "setting": "[1]", "value": 64, "unit": "µg/mL"}, {"measurement": "MIC C. glabrata", "setting": "[2]; hydrochloride", "value": 64, "unit": "µg/mL"}, {"measurement": "MIC C. neoformans", "setting": "[3]; hydrochloride", "value": 32, "unit": "µg/mL"}]}, {"compound": "CCC(N)C(=O)NCc1ccc(OCc2ccc(Cl)cc2)cc1.Cl", "note": "(racemic) [Compound 24, (R)/(S)-1-((4-((4-(chlorobenzyl)oxy)benzyl)amino)-1-oxobutane-2-aminium chloride]", "values": [{"measurement": "MIC C. albicans", "setting": "[1]", "value": 64, "unit": "µg/mL"}, {"measurement": "MIC C. glabrata", "setting": "[2]", "value": 32, "unit": "µg/mL"}, {"measurement": "MIC C. neoformans", "setting": "[3]", "value": 16, "unit": "µg/mL"}]}]}
